According to patent US12213481B1, “4,4′-[(2-hydroxypropane-1,3-diyl)bis(oxy)]dibenzaldehyde as an eco-friendly insecticidal agent against Spodoptera littoralis (boisd.)” (KING FAISAL UNIVERSITY, priority 2023, dated 2025):
≈ marks a conversion by molar mass, not a printed value. Read-outs that look alike come from different tables or passages of the source.

Columns and labels:
aquatic insects = conditions: cited from earlier work
[1] = system: Spodoptera littoralis larvae (2nd and 4th instars, laboratory strain of cotton leafworm); test: Insecticidal leaf dip bioassay screening; conditions: for LC50: Spodoptera littoralis, in Gossypium hirsutum, foliar, 72 h; for Toxicity index %: fenoxycarb's LC50/compound's LC50 * 100
Protocol: (§1) Five concentrations (200, 100, 50, 25, 12.5 ppm) were designed for this synthetic compound and the reference fenoxycarb's compound as the dynamic ingredients based on ppm via diluting the commercial formulation.
(§2) In this experiment, the synthetic compound was tested for its insecticidal bioactivity using the industry-standard leaf dip bioassay techniques. […] Until usage, the stocks were kept in a refrigerator. The target substance test results were noted & the concentrations needed to destroy 50% (LC50) of S. littoralis larvae were calculated. The target compound was employed in five different concentrations, & 0.1% Tween 80 was employed as a surfactant. Castor bean leaf discs (nine centimeters in diameter) were dipped in the concentration under test for ten seconds, then fed to 2th & 4th larvae, which were roughly the same size and housed in glass jars (five pound). Each action carried out 3 times with ten larvae each. The mortality equalized via Abbott's formula. Calculations of mortality setback line were measurably rummage via probity analysis. Harmfulness index was strongminded via sun equations. The mortality results of larval insect were estimated through employing probit analysis through a statistics (LDP-line) equation which estimate the LC50 values with 95% fiducially limits of lower, upper confidence limit and slope.

[2] = system: Spodoptera littoralis larvae (2nd and 4th instars, laboratory strain of cotton leafworm); conditions: in vivo
Protocol: as §1, §2

[3] = read-out: LC50 (mg/L) at 95%, 2nd instar larvae, after 72 hours of treatment, leaf dip
[4] = read-out: LC50 (mg/L) at 95%, 4th instar larvae, after 72 hours of treatment, leaf dip

With `CCc1ccc(C(=O)NN(C(=O)c2cc(C)cc(C)c2)C(C)(C)C)cc1` [tebufenozide] as the compound, how does the LC50 (aquatic insects) read?
Its LC50 is 100 to 1000 µg/mL.

Which results are given for `CCOC(=O)NCCOc1ccc(Oc2ccccc2)cc1` [fenoxycarb, reference compound]?
LC50 [1, 3]: 5.94 mg/L (≈ 19.7 µM); LC50 [1, 4]: 59.9 mg/L (≈ 199 µM)

Which Toxicity index % ([1]; 2nd instar larvae, 72 hours) does the source give for `O=Cc1ccc(OCC(O)COc2ccc(C=O)cc2)cc1` [Compound 1, 4,4′-[(2-hydroxypropane-1,3-diyl)bis(oxy)]dibenzaldehyde] here?
Its Toxicity index % is 22.93%.

What about the Toxicity index % ([1]; 4th instar larvae, 72 hours) of the same compound?
The Toxicity index % was 69.54%.

What about the LC50 [1, 3] of the same compound?
Its LC50 is 25.6 mg/L (≈ 85.3 µM).

And the LC50 [1, 4]?
The LC50 was ~86.1 mg/L (≈ 287 µM).

What about the “activity against Spodoptera littoralis (in words)” value ([1]; compared with the reference insecticide Fenoxycarb, 72 hours) of the same compound?
Its value is “active against Spodoptera littoralis”.

What about the “LC50 (mg/L) at 95%” value [2] of the same compound?
The value was “about 25.62 mg/L”.
